For assay [1], the target named is T1, CCR1 (125I-MIP-1α binding to THP-1 cell membranes) (Homo sapiens, UniProt P32246).
T1 construct: Membranes were prepared from THP-1 cells (ATCC. #TIB202); host or cells: THP-1 cells (membrane preparation)
T1 sequence (P32246 1-355): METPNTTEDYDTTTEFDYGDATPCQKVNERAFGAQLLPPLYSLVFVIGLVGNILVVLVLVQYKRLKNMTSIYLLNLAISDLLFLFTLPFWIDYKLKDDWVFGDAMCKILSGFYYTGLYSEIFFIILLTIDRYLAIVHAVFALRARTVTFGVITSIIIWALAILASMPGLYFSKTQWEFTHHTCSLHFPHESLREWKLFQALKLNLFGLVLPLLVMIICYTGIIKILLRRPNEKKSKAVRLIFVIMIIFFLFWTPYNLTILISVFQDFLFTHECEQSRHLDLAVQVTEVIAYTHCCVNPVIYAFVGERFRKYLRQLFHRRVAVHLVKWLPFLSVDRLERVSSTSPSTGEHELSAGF
As to the kind of experiment: THP-1 cell membrane 125I-MIP-1α binding assay. The note with it: 0.1 to 0.2 nM 125I-MIP-1α, 60 min at room temperature, read-out: Inhibition of 125I-MIP-1α Binding to THP-1 Cell Membranes (Ki (nM)). The text has this:
The activity of compounds of the present invention can be assessed using suitable assays, such as receptor binding assays or chemotaxis assays. For example, as described in the Examples, small molecule antagonists of […] binding have been identified utilizing THP-1 cells membranes. Specifically, a high through-put receptor binding assay, which monitors ^125I-MIP-1α binding to THP-1 cell membranes, was used to identify small molecule antagonists which block binding of MIP-1α. Compounds of the present invention can also be identified by virtue of their ability to inhibit the activation steps triggered by binding of a chemokine (e.g., CCL2 (MCP-1) CCL3 (MIP-1α), CCL4 (MIP-1β), CCL5 (RANTES), CCL7 (MCP-3), CCL8 (MCP-2), CCL13 (MCP-4), CCL14 (HCC-1), CCL15 (Lkn-1), CCL23 (MPIF-1)) to its receptor (CCR-1), such as chemotaxis, integrin activation and granule mediator release. They can also be identified by virtue of their ability to block chemokine (e.g., CCL2 (MCP-1) CCL3 (MIP-1α), CCL4 (MIP-1β), CCL5 (RANTES), CCL7 (MCP-3), CCL8 (MCP-2), CCL13 (MCP-4), CCL14 (HCC-1), CCL15 (Lkn-1), CCL23 (MPIF-1)) induced chemotaxis of, for example, HL-60 cells, T-cells, peripheral blood mononuclear cells or eosinophils.
Membranes were prepared from THP-1 cells (ATCC. #TIB202). Cells were harvested by centrifugation, washed twice with PBS (phosphate-buffered saline), and the cell pellets were frozen at −70 to −85° C. The frozen pellet was thawed in ice-cold lysis buffer consisting of 5 mM HEPES (N-2-hydroxyethylpiperazine-N′-2-ethane-sulfonic acid) pH 7.5, 2 mM EDTA (ethylenediaminetetraacetic acid), 5 μg/ml each aprotinin, leupeptin, and chymostatin (protease inhibitors), and 100 μg/ml PMSF (phenyl methane sulfonyl fluoride—also a protease inhibitor), at a concentration of 1 to 5×10^7 cells/ml. This procedure results in cell lysis. The suspension was mixed well to resuspend all of the frozen cell pellet. Nuclei and cell debris were removed by centrifugation of 400×g for 10 minutes at 4° C. The supernatant was transferred to a fresh tube and the membrane fragments were collected by centrifugation at 25,000×g for 30 minutes at 4° C. The supernatant was aspirated and the pellet was resuspended in freezing buffer consisting of 10 mM HEPES pH 7.5, 300 mM sucrose, 1 μg/ml each aprotinin, leupeptin, and chymostatin, and 10 μg/ml PMSF (approximately 0.1 ml per each 10^8 cells). All clumps were resolved using a minihomogenizer, and the total protein concentration was determined using a protein assay kit (Bio-Rad, Hercules, Calif., cat #500-0002). […]
Binding Assays utilized the membranes described above. […] The filters were rinsed with approximately 600 μl of binding buffer containing 0.5 M NaCl, dried, and the amount of bound radioactivity was determined by scintillation counting.

For assay [2], the system named is neutrophil recruitment in response to murine MIP-1α. As to the kind of experiment: In vivo efficacy model: neutrophil recruitment in response to MIP-1α (MPO activity in skin biopsies). The note with it: for oral bioavailability and efficacy in comparison to the Reference Example: guinea pig, comparison in words; for oral bioavailability and efficacy in comparison to the Reference Example / ED50: oral; for ED50: 30 minutes prior to intradermal murine MIP-1α (100 pmol/site), read-out: Efficacy: Guinea Pig Neutrophil Recruitment (ED50 (mg/kg)). On the set-up: species or system guinea pig. The protocol:
An animal model of neutrophil recruitment in response to MIP-1α was used to evaluate the biological/pharmacodynamic activity of the compounds. Compounds were administered to female Hartley guinea pigs orally (doses ranged from about 0.5 mg/kg to about 5.0 mg/kg) 30 minutes prior to intradermal injections of murine MIP-1α (100 pmol/site) or phosphate buffered saline (PBS). Skin punch biopsies were taken 5 hours later and processed for myeloperoxidase (MPO) measurements. MPO activity was used as an indicator for neutrophil recruitment to the injection site.

Assay [3] deals with other G protein-coupled receptors and ion channels. Kind of assay: Selectivity on other G protein-coupled receptors and ion channels. The settings on record: assayed on other G protein-coupled receptors and ion channels; comparison in words.
Setting [4] is: Cavia porcellus, Neutrophil, female Hartley guinea pigs, MPO at 5 hours.

The values that follow come from patent US9334283B2, “CCR1 antagonists and methods of use thereof” (Millennium Pharmaceuticals, Inc., priority 2002, dated 2016).

Broadly, the Ki is a measure of affinity in units of concentration, obtained from inhibition or displacement. As usually defined, the inhibition is the percentage by which the read-out fell short of the control.

With `CC1(C)CN(CC/C=C2/c3cc(C(=O)O)ccc3OCc3ncccc32)CCC1(O)c1ccc(Cl)cc1` (racemic) [Example 3, racemic-5-{3-[4-(4-Chloro-phenyl)-4-hydroxy-3,3-dimethyl-piperidin-1-yl]-propylidene}-5,11-dihydro-10-oxa-1-aza-dibenzo[a,d]cycloheptene-7-carboxylic acid], in assay [1], the Ki was 3 nM. For the same compound, the inhibition at 2.5 mg/kg in assay [2] (Cavia porcellus, Neutrophil, at 2.5 mg/kg oral, female Hartley guinea pigs, intradermal murine MIP-1α, MPO at 5 hours, read-out: Efficacy: Guinea Pig Neutrophil Recruitment, % inhibition) came out at 99%. Also, in assay [2], the “oral bioavailability and efficacy in comparison to the Reference Example” value is “greater oral bioavailability and efficacy”. The “selectivity compared to structurally related compounds” value in assay [3] was “greater selectivity”.

Take `CC1(C)CN(CCC=C2c3cc(C(=O)O)ccc3OCc3ncccc32)CC[C@]1(O)c1ccc(Cl)cc1` [Example 1, (S)-5-{3-[4-(4-Chloro-phenyl)-4-hydroxy-3,3-dimethyl-piperidin-1-yl]-propylidene}-5,11-dihydro-10-oxa-1-aza-dibenzo[a,d]cycloheptene-7-carboxylic acid]: in assay [1], the Ki was 2.3 nM. The ED50 in assay [2] (setting [4]) came to 0.12 mg/kg. Also, the “oral bioavailability and efficacy in comparison to the Reference Example” value in assay [2] was “greater oral bioavailability and efficacy”. The “selectivity compared to structurally related compounds” value in assay [3] was “greater selectivity”.

On to `CC1(C)CN(CCC=C2c3cc(C(=O)O)ccc3OCc3ncccc32)CC[C@@]1(O)c1ccc(Cl)cc1` [Example 2, (R)-5-{3-[4-(4-Chloro-phenyl)-4-hydroxy-3,3-dimethyl-piperidin-1-yl]-propylidene}-5,11-dihydro-10-oxa-1-aza-dibenzo[a,d]cycloheptene-7-carboxylic acid], for which, in assay [1], the inhibitory constant (Ki) was more than 1000 nM.

On to `O=C(O)c1ccc2c(c1)/C(=C/CCN1CCC(O)(c3ccc(Cl)cc3)CC1)c1cccnc1CO2` [Reference Example, reference compound], for which the Ki in assay [1] worked out at 7.8 nM. Further, in assay [2] (setting [4]), the ED50 turned out to be 3.6 mg/kg.
